Source: patent US4622389A, “Novel substrate for determining the activity of blood coagulation factor Xa (Stuart-Prower factor)” (Nitto Poseki Co., Ltd., priority 1984, dated 1986)
Residues, ends and D or L forms follow the SMILES beside them. *: point of attachment. pNA = O=[N+]([O-])c1ccc(N*)cc1; Bz = O=C(c1ccccc1)*

Tests used:
kallikrein (KL) = target: T1, kallikrein (KL) (Sus scrofa, UniProt P00752); assay: Substrate specificity test: reaction of substrates with kallikrein; type: biochemical, Swine; conditions: So = 0.4 mM/l, 5 min reaction at 37° C.
T1 construct: purchased Sigma Chemical Co., U.S.A
Procedure: (§1) The specificities of newly synthesized substrates were tested by reacting them with various enzymes as follows.
(§2) (1) Substrate solution: 2 mM/liter of H2 O
(§3) (2) Buffer solutions: The concentrations of each of tris(hydroxymethyl)aminomethane [hereinafter referred to as "Tris"], NaCl and CaCl2, as well as pH were specified as follows for the respective enzymes. […]
(§4) (4) Reaction Stopper (PNA): 10%-acetic acid
(§5) (5) Color forming agent (CHA): Pentacyanoamineferroate
(§6) (6) Method of determination:
(§7) 0.3 Milliter buffer solution and 0.1 ml of enzyme reagent were collected in a hard glass test tube of which surface being treated with silicone, or a plastic test tube and preheated in a thermostat at 37° C. for 5 minutes. Precisely 5 minutes after the reaction was started, 2.0 ml of reaction stopper solution or reactionterminating color forming reagent was added to terminate the enzyme reaction. The reaction mixture was allowed to stand at 37° C. for 10 minutes and then the adsorbance at 405 nm or 700 nm was measured.

plasmin (PL) = target: T2, plasmin (PL) (Homo sapiens, UniProt P00747); assay: Substrate specificity test: reaction of substrates with plasmin; type: biochemical; conditions: for absorbance (O.D.), PL: So = 0.4 mM/l, 5 min reaction at 37° C.
T2 construct: Plasmin Human; purchased The Green Cross Corporation, Japan
Procedure: as §1, §2, §3, §4, §5, §6, §7

factor Xa (FXa) = target: T3, factor Xa (FXa) (Homo sapiens, UniProt P00742); assay: Substrate specificity test: reaction of substrates with FXa, absorbance of liberated chromogen; type: biochemical; conditions: for absorbance (O.D.), FXa: So = 0.4 mM/l, 5 min reaction at 37° C.
T3 construct: purchased Bohringer Mannheim, GmbH, West Germany
Procedure: as §1, §2, §3, §4, §5, §6, §7

thrombin (TH) = target: T4, thrombin (TH) (Bos taurus, UniProt P00735); assay: Substrate specificity test: reaction of substrates with thrombin; type: biochemical, Bovine; conditions: for absorbance (O.D.), TH: So = 0.4 mM/l, 5 min reaction at 37° C.
T4 construct: proteolyze factor II (prothrombin) at two points of peptide chain to turn it into factor IIa (thrombin); purchased Mochida Pharmaceutical Co., Ltd., Japan
Procedure: as §1, §2, §3, §4, §5, §6, §7

urokinase (UK) = target: T5, urokinase (UK) (Homo sapiens, UniProt P00749); assay: Substrate specificity test: reaction of substrates with urokinase; type: biochemical; conditions: for absorbance (O.D.), UK: So = 0.4 mM/l, 5 min reaction at 37° C.
T5 construct: purchased Mochida Pharmaceutical Co., Ltd., Japan
Procedure: as §1, §2, §3, §4, §5, §6, §7

Solubility in water = type: physicochemical
[1] = 700 nm (CHA substrates, pentacyanoamineferroate)
[2] = PS-2000N given as 100, initial substrate concentration So = 0.4 mmol

T1 sequence (P00752 8-246): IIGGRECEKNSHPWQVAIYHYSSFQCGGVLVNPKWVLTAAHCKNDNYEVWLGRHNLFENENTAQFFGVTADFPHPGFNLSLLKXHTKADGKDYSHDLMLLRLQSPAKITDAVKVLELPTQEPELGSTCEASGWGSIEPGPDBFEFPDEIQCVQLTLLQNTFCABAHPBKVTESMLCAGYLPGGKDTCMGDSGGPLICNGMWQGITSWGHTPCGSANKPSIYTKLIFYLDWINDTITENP
T2 sequence (P00747 581-810 limits assumed): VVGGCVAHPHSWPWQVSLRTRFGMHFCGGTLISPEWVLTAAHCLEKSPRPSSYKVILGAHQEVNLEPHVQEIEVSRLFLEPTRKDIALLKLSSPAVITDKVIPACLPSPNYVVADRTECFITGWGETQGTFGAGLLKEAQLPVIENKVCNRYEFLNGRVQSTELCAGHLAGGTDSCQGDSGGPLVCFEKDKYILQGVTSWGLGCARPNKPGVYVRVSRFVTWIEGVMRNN
T2 sequence (P00747 97-580 partner limits assumed): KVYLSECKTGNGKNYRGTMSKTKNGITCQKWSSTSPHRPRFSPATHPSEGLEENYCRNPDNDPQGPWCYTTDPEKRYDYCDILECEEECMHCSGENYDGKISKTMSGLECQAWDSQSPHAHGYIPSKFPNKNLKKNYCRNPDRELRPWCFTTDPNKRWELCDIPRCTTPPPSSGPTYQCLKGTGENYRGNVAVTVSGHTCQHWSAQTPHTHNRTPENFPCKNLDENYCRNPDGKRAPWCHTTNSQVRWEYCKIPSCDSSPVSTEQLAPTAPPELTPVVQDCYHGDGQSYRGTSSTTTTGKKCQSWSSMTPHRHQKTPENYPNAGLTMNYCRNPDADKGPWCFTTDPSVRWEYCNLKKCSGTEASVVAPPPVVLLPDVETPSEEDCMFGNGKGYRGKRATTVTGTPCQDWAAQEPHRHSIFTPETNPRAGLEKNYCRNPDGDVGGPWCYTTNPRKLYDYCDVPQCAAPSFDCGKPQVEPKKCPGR
T3 sequence (P00742 235-488 limits assumed): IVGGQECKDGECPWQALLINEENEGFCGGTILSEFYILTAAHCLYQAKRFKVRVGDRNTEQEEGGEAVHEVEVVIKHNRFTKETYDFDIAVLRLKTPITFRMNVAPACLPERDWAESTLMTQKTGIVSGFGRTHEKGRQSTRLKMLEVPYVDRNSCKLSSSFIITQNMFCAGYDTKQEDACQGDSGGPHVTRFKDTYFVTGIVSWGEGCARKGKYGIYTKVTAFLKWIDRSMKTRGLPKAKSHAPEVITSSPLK
T3 sequence (P00742 41-179 partner limits assumed): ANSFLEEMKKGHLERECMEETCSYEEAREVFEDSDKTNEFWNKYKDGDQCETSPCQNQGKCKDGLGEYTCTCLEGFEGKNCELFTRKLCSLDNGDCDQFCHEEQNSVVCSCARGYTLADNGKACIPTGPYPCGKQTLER

| SMILES | absorbance (O.D.), KL (kallikrein (KL); [1]) | absorbance (O.D.), PL (plasmin (PL); [1]) | absorbance (O.D.), FXa (factor Xa (FXa); [1]) | absorbance (O.D.), TH (thrombin (TH); [1]) | absorbance (O.D.), UK (urokinase (UK); [1]) | also measured |
| --- | --- | --- | --- | --- | --- | --- |
| N=C(N)NCCC[C@H](NC(=O)CNC(=O)[C@@H](CCCCN)NC(=O)OCc1ccccc1)C(=O)Nc1ccc(O)c(C(=O)O)c1 [PS-2001, ZD-LysGlyArgCHA] | 0.0 O.D. | 0.005 O.D. | 0.314 O.D. | 0.006 O.D. | 0.004 O.D. | – |
| CC(=O)NCCCC[C@@H](NC(=O)OCc1ccccc1)C(=O)NCC(=O)N[C@@H](CCCNC(=N)N)C(=O)Nc1ccc(O)c(C(=O)O)c1 [PS-2002, ZD-Lys(Ac)GlyArgCHA] | 0.0 O.D. | 0.004 O.D. | 0.426 O.D. | 0.009 O.D. | 0.003 O.D. | – |
| CN(CC(=O)N[C@@H](CCCNC(=N)N)C(=O)Nc1ccc(O)c(C(=O)O)c1)C(=O)[C@@H](CCCCN)NC(=O)OCc1ccccc1 [PS-2004, ZD-LysSarArgCHA] | 0.0 O.D. | 0.0 O.D. | 0.292 O.D. | 0.006 O.D. | 0.0 O.D. | – |
| CC[C@H](C)[C@H](NC(=O)c1ccccc1)C(=O)N[C@@H](CCC(=O)O)C(=O)NCC(=O)N[C@@H](CCCN=C(N)N)C(=O)Nc1ccc([N+](=O)[O-])cc1 [S-2222, Bz-Ile-Glu-Gly-Arg-PNA, reference compound] (Bz-IEGR-pNA) | – | – | – | – | – | water solubility (Solubility in water): about 6 mmol/1 |
| CC[C@H](C)[C@H](NC(=O)c1ccccc1)C(=O)N[C@@H](CCC(=O)O)C(=O)NCC(=O)N[C@@H](CCCNC(=N)N)C(=O)Nc1ccc([N+](=O)[O-])cc1 [S-2222, Bz-Ile-Glu-Gly-Arg-PNA, reference compound] (Bz-IEGR-pNA) | – | – | – | – | – | absorbance (O.D.), KL (kallikrein (KL); 405 nm (PNA substrates)): 0.013 O.D.; absorbance (O.D.), PL (plasmin (PL); 405 nm (PNA substrates)): 0.011 O.D.; Relative reactivity to enzymes, PL (plasmin (PL); [2]): 16%; absorbance (O.D.), FXa (factor Xa (FXa); 405 nm (PNA substrates)): 0.669 O.D.; Relative reactivity to enzymes, Fxa (factor Xa (FXa); [2]): 57%; absorbance (O.D.), TH (thrombin (TH); 405 nm (PNA substrates)): 0.018 O.D.; Relative reactivity to enzymes, TH (thrombin (TH); [2]): 31%; absorbance (O.D.), UK (urokinase (UK); 405 nm (PNA substrates)): 0.035 O.D.; Relative reactivity to enzymes, UK (urokinase (UK); [2]): 40% |
